Results published in patent US20220354998A1, “HYDROGEL-FILLED MICRONEEDLE ARRAYS AND USES THEREOF” (University of Connecticut, priority 2021, published 2022).
Blank lines part the entries; values can stand above or below the molecule they belong to.

Assays:
[1] = test system: Human umbilical vein endothelial cells (HUVECs); assay: In vitro scratch assay on cultured HUVECs; assay type: cell-based
Method: In Vitro Scratch Assay. Human umbilical vein endothelial cells (HUVECs) (Sigma-Aldrich) were cultured in EGM™ Endothelial Cell Growth Medium BulletKit™ (Lonza) complete medium. At their fifth passage, the HUVECs were detached using trypsin-EDTA (0.1% w/v), resuspended in the growth medium, and seeded at a concentration of 50,000 cells per well into a 12-well tissue culture plate that was coated with a thin layer of Geltrex® hESC-Qualified, Ready-To-Use, Reduced Growth Factor Basement Membrane Matrix (Gibco®). The Geltrex® layer was formed by diluting by a factor of 2 in the basal endothelial medium and seeding in empty wells. […]
A scratch was created in the confluent HUVECs by lightly dragging a P200 pipette tip across the bottom of the well. […] The concentration of VEGF in the MNA+VEGF group was calculated so that if total VEGF release occurred, the concentration of VEGF in the well would match the concentration of the positive control (50 ng/mL). […] The area of scratch closure for each time point was calculated using ImageJ (NIH, Bethesda, Md.) and compared for relative area change to 0 h.
The ability of the platform to preserve the bioactivity of encapsulated therapeutics was assessed by loading vascular endothelial growth factor (VEGF), an important angiogenic factor. […] Three different groups were evaluated: MNA−VEGF, MNA+VEGF, and a positive control. […]

[2] = Dual-drug release from multi-length MNA into two-gel skin model; assay type: physicochemical; conditions: 1% alginate, 16 h
Method: Evaluation of Dual-Drug Release Capability. For the dual release, MNAs with 4.2 mm long and 2 mm short needles were separately loaded with a 1% (m/v) alginate solution in DPBS containing ˜46 μg/mL of Rh-B, ˜1010 μg/mL of BSA-FITC, or no added analyte. Four combinations of analyte-loaded alginate MNAs were tested: (1) long needles loaded with Rh-B and short needles loaded with BSA-FITC (Rh-B/FITC), (2) long needles loaded with Rh-B and short needles blank (Rh-B/Blank), (3) long needles blank and short needles loaded with BSA-FITC (Blank/FITC), and (4) both lengths blank (Blank/Blank). The gels were crosslinked as previously mentioned and ran in quintuplicate. The needles were inserted into a two-gel skin model that include a 2 mm thick 3% (m/v) low-gelling agarose cast on top of a 3 mm thick 10% (m/v) porcine gelatin in 12 well plates. Both solutions were prepared in PBS. […] The collected gels were melted and the amount of Rh-B and BSA-FITC was quantified using a BioTek Cytation 5 plate reader at an excitation/emission of 546/568 and 495/520 nm, respectively.
An additional release experiment was conducted to evaluate the performance of the MNA at the dual-delivery of drugs. […] Following the release, the gel layers were separated, melted, and read in a plate reader for their Rh-B and BSA-FITC content. […] The measured release results are quantified in FIG. 5C, FIG. 5D, and FIG. 13. […]

Molecule: vascular endothelial growth factor [VEGF]
healing potential (gap closure) ([1]; after 8 h of culture, HUVEC scratch, n=4): cells nearly closed the gap in its entirety | effect on HUVEC migration ([1]; scratch assay): positive effect

Rh-B signal by gel layer ([2]; long needles (4.2 mm)): stronger in the gelatin
Molecule: CCN(CC)c1ccc2c(-c3ccccc3C(=O)O)c3ccc(=[N+](CC)CC)cc-3oc2c1.[Cl-] [Rh-B, Rhodamine B]

Molecule: BSA fluorescein isothiocyanate conjugate [BSA-FITC]
BSA-FITC signal by gel layer ([2]; short needles (2 mm)): greater BSA-FITC signal in the top, agarose layer
